Where “and” joins values, the source holds several entries; their conditions need not be identical. Identical values can stand only once. Inconclusive results and toxic doses are left out. *1 amine or outer side, *2 acyl side, *3 side chain or, on linkers, in order; H or OH if unused. Where a SMILES comes first, the peptide text is derived from it. Bridges are numbered along the chain shown (N, C = ends). Roman numbers before positions name the chains, in order. [ ]: non-standard residue; d: D form. Actinocin(9to1) = Cc1c2oc3c(C)ccc(C(=O)[*:1])c3nc-2c(C(=O)[*:2])c(N)c1=O; aThr = C[C@H](O)[C@H](N)C(=O)O; NMeV = CN[C@H](C(=O)O)C(C)C; Sar = CNCC(=O)O

The results in this text go back to PubChem BioAssay AID320 (DTP/NCI, 2004).

The test system of this assay is BDF1 mice, P329 reticulum cell sarcoma ip, survival T/C. Put plainly: NCI In Vivo Anticancer Drug Screen. Data for tumor model P329 Reticulum Cell Sarcoma (intraperitoneal) in B6D2F1 (BDF1) mice. To be noted: endpoint: median survival time, higher = longer survival. Here is the method: The antitumor activity of compounds was measured in mice bearing transplantable tumors. Survival or tumor size were measured and the results are expressed as the measurement made in the treated group (T) divided by the measurement made in the vehicle treated control group (C). The tumor model used in this assay is P329 Reticulum Cell Sarcoma (intraperitoneal) in B6D2F1 (BDF1) mice

Setting [1] is: dose: 2.5 mg/kg/injection, schedule: Q01DX010 (ip), vehicle: saline.
The mark [2] stands for this setting: dose: 10.0 mg/kg/injection, schedule: Q01DX010 (ip), vehicle: saline.
[3] abbreviates: dose: 25.0 mg/kg/injection, schedule: Q01DX010 (ip), vehicle: saline.
Setting [4] is: dose: 50.0 mg/kg/injection, schedule: Q01DX010 (ip), vehicle: saline.
Where [5] appears, read: dose: 100.0 mg/kg/injection, schedule: Q01DX010 (ip), vehicle: saline.
Where [6] appears, read: dose: 12.5 mg/kg/injection, schedule: Q01DX010 (sc), vehicle: steriod suspending solution.
[7] abbreviates: dose: 120.0 mg/kg/injection, schedule: Q01DX010 (ip), vehicle: saline.
Setting [8] is: dose: 8.0 mg/kg/injection, schedule: Q01DX010 (ip), vehicle: saline.
Setting [9] is: dose: 5.0 mg/kg/injection, schedule: Q01DX010 (ip), vehicle: saline.
The mark [10] stands for this setting: dose: 20.0 mg/kg/injection, schedule: Q01DX010 (ip), vehicle: saline.
[11] abbreviates: dose: 40.0 mg/kg/injection, schedule: Q01DX010 (ip), vehicle: saline.
Where [12] appears, read: dose: 80.0 mg/kg/injection, schedule: Q01DX010 (ip), vehicle: saline.
The mark [13] stands for this setting: dose: 12.5 mg/kg/injection, schedule: Q01DX010 (ip), vehicle: saline.

`O=P1(N(CCCl)CCCl)NCCCO1` (stereo not given): the T/C (dose: 11.3 mg/kg/injection, schedule: Q01DX010 (ip), vehicle: saline) is 106 % of control and 121 % of control; the T/C (dose: 22.5 mg/kg/injection, schedule: Q01DX010 (ip), vehicle: saline) was 86 % of control.

Regarding `Cn1cnc([N+](=O)[O-])c1Sc1nc(N)nc2nc[nH]c12`, the T/C under setting [1] was 150 % of control and the T/C under setting [2] is 100 % of control.

For the molecule `CS(=O)(=O)OCC(O)C(O)C(O)C(O)COS(C)(=O)=O` (stereo not given), the T/C by setting is: under setting [3], 100 % of control; under setting [4], 100 % of control and 103 % of control; under setting [5], 107 % of control; (dose: 200.0 mg/kg/injection, schedule: Q01DX010 (ip), vehicle: saline) 121 % of control and 123 % of control.

In the case of `C[C@]12C=CC(=O)C=C1CC[C@@H]1[C@@H]2C(=O)C[C@@]2(C)[C@H]1CC[C@]2(O)C(=O)CO`, the T/C under setting [6] was 95 % of control and 104 % of control.

On to `N#CCSc1ncnc2nc[nH]c12`, for which the T/C is 150 % of control (dose: 15.0 mg/kg/injection, schedule: Q01DX010 (ip), vehicle: saline); 115 % of control (dose: 30.0 mg/kg/injection, schedule: Q01DX010 (ip), vehicle: saline); 173 % of control under setting [7].

Turning to `CC(CCC(C)OS(C)(=O)=O)OS(C)(=O)=O` (stereo not given), the T/C runs as follows: (dose: 2.0 mg/kg/injection, schedule: Q01DX010 (ip), vehicle: saline) 100 % of control and 107 % of control; (dose: 4.0 mg/kg/injection, schedule: Q01DX010 (ip), vehicle: saline) 103 % of control and 107 % of control; under setting [8], 114 % of control and 115 % of control.

On to `C1CN1c1nc(N2CC2)nc(N2CC2)n1`, for which the T/C was 96 % of control and 108 % of control (dose: 0.13 mg/kg/injection, schedule: Q01DX010 (ip), vehicle: saline); 115 % of control (dose: 0.25 mg/kg/injection, schedule: Q01DX010 (ip), vehicle: saline); 170 % of control (dose: 0.5 mg/kg/injection, schedule: Q01DX010 (ip), vehicle: saline); 150 % of control (dose: 1.0 mg/kg/injection, schedule: Q01DX010 (ip), vehicle: saline).

As for `COC(=O)[C@@H]1c2cc3c(c(O)c2[C@@H](OC2OC(C)C(OC)C(C)(OC)C2OC)C[C@]1(C)O)C(=O)c1c(O)cc2c(c1C3=O)O[C@H]1O[C@]2(C)[C@H](O)[C@@H](N(C)C)[C@@H]1O` (stereo not given in full), the T/C was 100 % of control (dose: 62.5 micrograms/kg/injection, schedule: Q01DX010 (ip), vehicle: saline); 93 % of control and 100 % of control (dose: 125.0 micrograms/kg/injection, schedule: Q01DX010 (ip), vehicle: saline); 90 % of control and 100 % of control (dose: 250.0 micrograms/kg/injection, schedule: Q01DX010 (ip), vehicle: saline); 93 % of control and 100 % of control (dose: 500.0 micrograms/kg/injection, schedule: Q01DX010 (ip), vehicle: saline).

`O=C(Nc1ccc(C2=NCCN2)cc1)c1ccc(C(=O)Nc2ccc(C3=NCCN3)cc2)c([N+](=O)[O-])c1`: the T/C runs as follows: (dose: 6.0 mg/kg/injection, schedule: Q01DX010 (ip), vehicle: saline) 153 % of control and 175 % of control; under setting [8], 188 % of control and 212 % of control; (dose: 18.0 mg/kg/injection, schedule: Q01DX010 (ip), vehicle: saline) 91 % of control.

For the molecule `N#[N+]c1cnc([O-])[nH]c1=O`, the T/C is, setting by setting: (dose: 1.25 mg/kg/injection, schedule: Q01DX010 (ip), vehicle: saline) 122 % of control; under setting [1], 103 % of control; under setting [9], 110 % of control; under setting [2], 117 % of control.

Turning to `CC[n+]1c(-c2ccccc2)c2cc(N)ccc2c2ccc(N)cc21`, the T/C is, setting by setting: under setting [1], 114 % of control; under setting [10], 107 % of control.

With `Cn1c(N)nc2nc[nH]c2c1=S`, the T/C runs as follows: under setting [2], 100 % of control; under setting [10], 106 % of control; under setting [11], 100 % of control; under setting [12], 106 % of control.

As for `CN(C)c1ccc(/C=C/c2ccnc3ccccc23)cc1`, the T/C under setting [9] is 100 % of control and 103 % of control; the T/C under setting [2] was 92 % of control and 107 % of control; the T/C under setting [10] was 96 % of control and 103 % of control; the T/C under setting [11] was 92 % of control and 100 % of control.

Turning to `C[C@H]1C(=O)O[C@@H]2CCN3CC=C(COC(=O)[C@](C)(O)[C@@]1(C)O)[C@H]23`, the T/C by setting is: (dose: 3.13 mg/kg/injection, schedule: Q01DX010 (ip), vehicle: saline) 106 % of control and 107 % of control; (dose: 6.25 mg/kg/injection, schedule: Q01DX010 (ip), vehicle: saline) 103 % of control and 107 % of control; under setting [13], 103 % of control; under setting [3], 100 % of control and 103 % of control.

Take `Clc1ccc(C(c2ccccc2Cl)C(Cl)Cl)cc1` (stereo not given): the T/C was 100 % of control (dose: 62.5 mg/kg/injection, schedule: Q01DX010 (sc), vehicle: steriod suspending solution); 100 % of control (dose: 125.0 mg/kg/injection, schedule: Q01DX010 (sc), vehicle: steriod suspending solution); 107 % of control (dose: 250.0 mg/kg/injection, schedule: Q01DX010 (sc), vehicle: steriod suspending solution); 103 % of control (dose: 500.0 mg/kg/injection, schedule: Q01DX010 (sc), vehicle: steriod suspending solution).

Turning to `CC[C@]1(O)C[C@H]2CN(CCc3c([nH]c4ccccc34)[C@@](C(=O)OC)(c3cc4c(cc3OC)N(C=O)[C@H]3[C@@](O)(C(=O)OC)[C@H](OC(C)=O)[C@]5(CC)C=CCN6CC[C@]43[C@@H]65)C2)C1`, the T/C was 100 % of control and 105 % of control (dose: 0.03 mg/kg/injection, schedule: Q01DX010 (ip), vehicle: saline); 104 % of control and 113 % of control (dose: 0.06 mg/kg/injection, schedule: Q01DX010 (ip), vehicle: saline); 114 % of control (dose: 0.12 mg/kg/injection, schedule: Q01DX010 (ip), vehicle: saline).

Turning to `CCn1cnc2c(=S)nc[nH]c21`, the T/C reads like this: (dose: 15.6 mg/kg/injection, schedule: Q01DX010 (ip), vehicle: saline) 111 % of control and 114 % of control; (dose: 31.3 mg/kg/injection, schedule: Q01DX010 (ip), vehicle: saline) 114 % of control and 123 % of control; (dose: 125.0 mg/kg/injection, schedule: Q01DX010 (ip), vehicle: saline) 89 % of control and 100 % of control.

For the molecule `Cc1c2oc3c(C)ccc(C(=O)N[C@@H]4C(=O)N[C@H](C(C)C)C(=O)N5CCC[C@H]5C(=O)N(C)CC(=O)N(C)[C@@H](C(C)C)C(=O)O[C@H]4C)c3nc-2c(C(=O)N[C@@H]2C(=O)N[C@H](C(C)C)C(=O)N3CCC[C@H]3C(=O)N(C)CC(=O)N(C)[C@@H](C(C)C)C(=O)O[C@H]2C)c(N)c1=O` (I: [aThr][dV]P[Sar][NMeV] / II: [aThr][dV]P[Sar][NMeV]; ester I:1-I:C, II:1-II:C; linker I:N-II:N via Actinocin(9to1)), the T/C was 115 % of control and 120 % of control (dose: 12.5 micrograms/kg/injection, schedule: Q01DX010 (ip), vehicle: other); 166 % of control (dose: 50.0 micrograms/kg/injection, schedule: Q01DX010 (ip), vehicle: other).

With `NC(Cc1ccc(N(CCCl)CCCl)cc1)C(=O)O` (stereo not given), the T/C was 153 % of control under setting [9] and 175 % of control under setting [2].

With `C[C@]12C=CC(=O)C=C1CC[C@@H]1[C@@H]2[C@@H](O)C[C@@]2(C)[C@H]1CC[C@]2(O)C(=O)CO`, the T/C under setting [6] was 100 % of control and 103 % of control; the T/C (dose: 25.0 mg/kg/injection, schedule: Q01DX010 (sc), vehicle: steriod suspending solution) is 100 % of control; the T/C (dose: 50.0 mg/kg/injection, schedule: Q01DX010 (sc), vehicle: steriod suspending solution) was 100 % of control; the T/C (dose: 100.0 mg/kg/injection, schedule: Q01DX010 (sc), vehicle: steriod suspending solution) was 100 % of control.

With `CN(C)c1nc(N(C)C)nc(N(C)C)n1`, the T/C runs as follows: (dose: 18.8 mg/kg/injection, schedule: Q01DX010 (ip), vehicle: saline) 96 % of control and 103 % of control; (dose: 37.5 mg/kg/injection, schedule: Q01DX010 (ip), vehicle: saline) 92 % of control and 100 % of control; (dose: 75.0 mg/kg/injection, schedule: Q01DX010 (ip), vehicle: saline) 92 % of control and 107 % of control; (dose: 150.0 mg/kg/injection, schedule: Q01DX010 (ip), vehicle: saline) 107 % of control and 114 % of control.

In the case of `CC/C(=C(/CC)c1ccc(O)cc1)c1ccc(O)cc1`, the T/C was 107 % of control under setting [13]; 96 % of control and 107 % of control under setting [3]; 100 % of control and 103 % of control under setting [4]; 88 % of control under setting [5].

On to `CN(C)c1ccc(Nc2c3ccccc3nc3ccccc23)cc1`, for which the T/C is, setting by setting: (dose: 36.0 mg/kg/injection, schedule: Q01DX010 (ip), vehicle: saline) 121 % of control; under setting [12], 157 % of control; under setting [7], 153 % of control.

With `CCN(CC)CCNc1ccc(C)c2sc3ccccc3c(=O)c12`, the T/C is, setting by setting: under setting [3], 111 % of control and 114 % of control; under setting [5], 115 % of control.
